The results in this text go back to PMC7555119, “Characterization of Novel Synthetic Polyphenols: Validation of Antioxidant and Vasculoprotective Activities” (Antioxidants, 2020).

A short description of data set [1]: Oxygen radical absorbance capacity (ORAC) assay. The protocol:
The ORAC assay was performed following Ou et al., as modified by Garcés-Rimón et al.. All samples and reagents were dissolved in phosphate buffer (75 mM; pH 7.4). […] The fluorescence was recorded at 40 °C every 55 s for 95 min using a fluorimeter (SpectraMax M2; Molecular Devices, California, USA), with excitation and emission wavelengths of 480 and 520 nm, respectively. All samples were tested in triplicate. ORAC values were expressed as μmol of Trolox equivalents (TE)/μmol of pure compound.

Data set [2] in a line: ABTS radical cation scavenging assay. The protocol: The 2,2′-azino-bis (3-ethylbenzothiazoline-6-sulfonic acid) diammonium salt (ABTS) assay was performed according to Re et al. and modified by Oki et al. for its use in microplates. Samples were diluted in methanol. An ABTS^•+ stock solution was prepared by adding 44 μL of potassium persulfate (140 mmol/L) to a 2.5 mL ABTS^•+ aqueous solution (7 mmol/L). The working solution of the radical ABTS^+ was prepared by diluting the stock solution 1:75 (v/v) in a sodium phosphate buffer (5 mmol/L, pH 7.4) to obtain an absorbance value of 0.7±0.02 at 734 nm. Samples (30 μL) were added to 270 μL of the working solution of ABTS^•+ in a microplate. Absorbance was measured at 734 nm and 30 °C for 20 min, every 5 min in a Synergy HT plate spectrophotometer (Biotek Instruments, Winoosky, VT, USA). A calibration curve was made with Trolox (20–250 μM). All samples were analyzed in triplicate. Results were expressed in μmol TE/μmol of pure compound, as for the ORAC assays.

Data set [3] is described as follows: DPPH free radical scavenging assay (RSA). The protocol:
For the 2,2′-diphenylpicrylhydrazyl (DPPH) assay, antioxidant compounds were dissolved in ethanol with a stock concentration of 4 mM and stirred for 24 h. DPPH (Alfa Aesar) was also dissolved in ethanol at 0.127 mM. Different compound solutions were prepared by serial dilutions of each stock solution ([…]). […] Amounts of 80 µL of each solution and 80 µL of DPPH were added in a 96-well plate. The absorbance was measured at different times (10, 20 and 30 min and 1 and 2 h) by a Multi-Detection Microplate Reader Synergy HT (λMAX = 515 nm). Radical scavenging activity (RSA, %) was calculated using Equation (1) (1) RSA(%)=ADPPH−AEXTRACT/ADPPH·100 where AEXTRACT and ADPPH correspond to the absorbance of DPPH with and without the extracts, respectively. Eight replicates were used for each compound and results were expressed as mean value ± standard deviation. The RSA half-maximal inhibitory concentration (IC50) values were calculated from the relationship curve of RSA versus concentrations by a non-linear fit using the software GraphPad Prism 7.
In general terms: Loss of DPPH colour is used to gauge radical scavenging.

In data set [4] the test system is human dermal fibroblasts (HDF). Kind of data set: Cell viability, AlamarBlue assay. The class given is cell-based. To be noted: 24 h, AlamarBlue, non-linear fit. The protocol: Cytotoxicity of selected antioxidant compounds was assessed using human dermal fibroblasts (HDF, Innoprot, P10856) and an AlamarBlue assay. Human fibroblasts were grown and maintained using Dulbecco’s Modified Eagle Medium high glucose (DMEM, Sigma Aldrich, D6171), supplemented with 10% Fetal Bovine Serum (FBS), 2% L-glutamine and 1% penicillin/streptomycin. Cells were incubated at 37 °C, 95% relative humidity and 5% CO2. Additionally, DMEM-high glucose, HEPES, no phenol red (Gibco, 2106329) was used to prepare the AlamarBlue solution. Stock solutions of the antioxidant compounds 3, 8, 15 and 17 were prepared in dimethyl sulfoxide (DMSO). Compound 7 was not soluble enough in DMSO to obtain a cell viability IC50 value. Serial dilutions of the antioxidant compounds were prepared using the previously mentioned stock solutions and DMEM. Final DMSO concentration was maintained lower than 1% v/v in the cell culture experiments. HDF were seeded at 9 × 10^4 cells/well in a 96-well plate and incubated for 24 h. The medium was replaced by the corresponding antioxidant solutions and incubated for an additional 24 h. Then, compounds were removed, cells were washed with Dulbecco’s Phosphate Buffered Saline (PBS, Sigma Aldrich) and treated with a 10% v/v AlamarBlue (Invitrogen) solution prepared in DMEM without phenol red. After 3 h of incubation, absorbance was monitored at 570 nm by a Multi-Detection Microplate Reader Synergy HT. Cells treated with DMEM without any antioxidant compound were used as the 100% viability control. Eight replicates were used for each antioxidant solution. IC50 values were obtained by a non-linear fit using the software GraphPad Prism 7.
On the technique in general: Resazurin is reduced to fluorescent resorufin, in cell work by metabolically active cells.

For data set [5], the system named is Saccharomyces cerevisiae strain BY4741. Kind of data set: In vivo antioxidant capacity in stressed yeasts (growth recovery, survivors). The class given is cell-based. As for the experimental part: Saccharomyces cerevisiae haploid strain BY4741 was used as described previously. Briefly, 20 μL of glycerol stock culture was revived in 5ml of YPD medium (1% yeast extract, 2% bacteriological peptone and 2% dextrose) at 28 °C, with shaking (210 rpm). Fifty microliters of 20-h-old culture was used to inoculate fresh 5ml YPD (control medium) or 5 mL of oxidative stress medium (YPOxD: YPOxD; 1% yeast extract, 2% bacteriological peptone, 1% dextrose and 3% H2O2). Stress (and control) was conducted during 16h at 28 °C, with shaking (220 rpm).
Growth rate was determined from growth kinetics using the BioScreen C plate-reader system (OY Growth Curves Ab Ldt., Helsinki, Finland). Stressed yeast cultures (16 h old) were used to inoculate 200 µl of fresh media to an initial OD595 of 0.05–0.07, being distributed in 100-well honeycomb plates (Oy Growth Curves) in triplicate per each condition (each different dose of each compound). Plates were then incubated at 28 °C for 72h, with shaking (High force), taking OD measurement each 15 min in the Bioscreen C. Maximum growth rate (μmax) and biomass production (carrying capacity) were determined in R using ‘Growthcurver’ package version 0.3 [24]. Growth curves were constructed in EXCEL, represented as mean ± SEM (standard error of mean). […] In addition, to measure survival after oxidative stress and antioxidant effectiveness of each compound, yeast cells from each challenge were serially diluted in 96-well plates, and each dilution was spotted (with a 8 × 6 stainless steel replica platter from SIGMA) in triplicate to determine viable colonies after 24–48 h at 28 °C. Survivors (mean ± SEM) were compared between treatments with one-way ANOVA, Fisher’s LSD test, with alpha at 0.05 for significance.

Data set [6] is described as follows: Aqueous thermodynamic solubility in H2O (UV). The class given is physicochemical. The following applies: water, thermodynamic from solid. From the text:
4) Log P and aqueous solubility of selected compounds.
Table S2. Theoretical Log P values and aqueous thermodynamic solubility measured for
Comp `Chemical Structure MW LogP Calc Aqueous Solubility a
a Thermodynamic solubility in H 2O (UV). […]

In brackets after ≈: the same amount, converted by molar mass. Where two headings read alike, the source gives them in different places.

Regarding `O=C(Nc1ccc(O)cc1)N(c1ccc(O)cc1)c1ccc(O)cc1` [Compound 17, N,N-bis(4-Hydroxyphenyl)-N′-(4′-hydroxyphenyl)urea], the ORAC in data set [1] is reported as 19.4 ± 0.7 µmol of trolox/µmol of pure compound; in data set [1] (TE: Trolox Equivalents), above 19 TE. Further, the ABTS in data set [2] was 3.57 ± 0.00 µmol of trolox/µmol of pure compound. The “concentration down to which RSA ability is maintained independently of time” value in data set [3] (10 min to 2 h) is reported as 0.25 mM. In addition, the “RSA capacity fold higher compared to resveratrol” value in data set [3] (after 10 min, from IC50) is on record as 3.7 fold. Also, the IC50 – broadly, the midpoint of a concentration-inhibition curve – was 17.9 µM in data set [3] (compound needed to reach 50% RSA after 10 min, read-out: DPPH PSA IC50 10 min); 9.6 µM in data set [3] (read-out: DPPH PSA IC50 2 h, compound needed to reach 50% RSA after 2 h); above 1400 µM in data set [4]; 1790 µM in data set [4] (Homo sapiens, Fibroblast). For the same molecule, the RSA percentage in data set [3] (highest concentration 2 mM, 10 min) is listed as around 72%. Also, the “growth rate (r) recovery of stressed yeast” value in data set [5] (H2O2-stressed BY4741, doses 2, 20 and 40 μg) is on record as “best performing antioxidant”. In addition, the “carrying capacity (k) recovery of stressed yeast” value in data set [5] (H2O2-stressed BY4741, each dose tested) is recorded as “able to recover the carrying capacity of yeast cells similarly as control antioxidants”. Besides, in data set [6], the solubility (as a rule, the dissolved amount per volume that the medium holds) was found to be 0.62 ± 0.01 mg/mL (≈ 1840 µM).
